From patent publication US11845747B2, “Ester and carbonate pyrimidine compounds as JAK kinase inhibitors” (priority 2019, dated 2023)
In brackets after ≈: the same amount, converted by molar mass.

Tests used:
[1] = In vitro skin S9 metabolic stability assay (human); type: in vitro ADME; conditions: human, s9, pH 7.4
Procedure: (§1) Assay 6: In Vitro Skin S9 Metabolic Stability Assay
(§2) The objective of this assay was to assess the metabolic stability of compounds in human and mouse skin S9 sub-fraction. Human and mouse skin S9 sub-fractions obtained from Bioreclamation-IVT (Baltimore, Md.) were thawed on ice and diluted into 0.1M potassium phosphate buffer pH 7.4 to yield final incubation protein concentrations of 1.0 mg/mL. Test compounds (10 mM) were diluted into phosphate buffer to yield final incubation concentrations of 0.2 μM and 2.0 μM. Incubations were conducted at 37° C. temperature following addition of 1 mM NADPH and test aliquots were taken at time points 0, 5, 10, 20, 30 and 45 minutes. Each aliquot was crashed into water with 3% formic acid and 1 μM internal standard. The resulting samples were injected onto an LC-MS/MS system for analysis.
(§3) For each incubation, the peak area of the analytes in each t0 aliquot was set to 100% and the peak areas from subsequent time point aliquots were converted to percentage of parent compound remaining relative to t0. The percentage of parent compound remaining at each time point was converted to natural log scale and plotted versus time in minutes to determine a disappearance half-life.

JAK2 = target: T1, JAK2 (Homo sapiens, UniProt O60674); assay: Biochemical LanthaScreen JAK2 kinase assay; conditions: Km ATP 3 μM; pKi from pIC50 by Cheng-Prusoff; read-out: JAK 2 (pKi) (converted)
T1 construct: GST; purchased Life Technologies
T1 sequence (O60674 whole entry): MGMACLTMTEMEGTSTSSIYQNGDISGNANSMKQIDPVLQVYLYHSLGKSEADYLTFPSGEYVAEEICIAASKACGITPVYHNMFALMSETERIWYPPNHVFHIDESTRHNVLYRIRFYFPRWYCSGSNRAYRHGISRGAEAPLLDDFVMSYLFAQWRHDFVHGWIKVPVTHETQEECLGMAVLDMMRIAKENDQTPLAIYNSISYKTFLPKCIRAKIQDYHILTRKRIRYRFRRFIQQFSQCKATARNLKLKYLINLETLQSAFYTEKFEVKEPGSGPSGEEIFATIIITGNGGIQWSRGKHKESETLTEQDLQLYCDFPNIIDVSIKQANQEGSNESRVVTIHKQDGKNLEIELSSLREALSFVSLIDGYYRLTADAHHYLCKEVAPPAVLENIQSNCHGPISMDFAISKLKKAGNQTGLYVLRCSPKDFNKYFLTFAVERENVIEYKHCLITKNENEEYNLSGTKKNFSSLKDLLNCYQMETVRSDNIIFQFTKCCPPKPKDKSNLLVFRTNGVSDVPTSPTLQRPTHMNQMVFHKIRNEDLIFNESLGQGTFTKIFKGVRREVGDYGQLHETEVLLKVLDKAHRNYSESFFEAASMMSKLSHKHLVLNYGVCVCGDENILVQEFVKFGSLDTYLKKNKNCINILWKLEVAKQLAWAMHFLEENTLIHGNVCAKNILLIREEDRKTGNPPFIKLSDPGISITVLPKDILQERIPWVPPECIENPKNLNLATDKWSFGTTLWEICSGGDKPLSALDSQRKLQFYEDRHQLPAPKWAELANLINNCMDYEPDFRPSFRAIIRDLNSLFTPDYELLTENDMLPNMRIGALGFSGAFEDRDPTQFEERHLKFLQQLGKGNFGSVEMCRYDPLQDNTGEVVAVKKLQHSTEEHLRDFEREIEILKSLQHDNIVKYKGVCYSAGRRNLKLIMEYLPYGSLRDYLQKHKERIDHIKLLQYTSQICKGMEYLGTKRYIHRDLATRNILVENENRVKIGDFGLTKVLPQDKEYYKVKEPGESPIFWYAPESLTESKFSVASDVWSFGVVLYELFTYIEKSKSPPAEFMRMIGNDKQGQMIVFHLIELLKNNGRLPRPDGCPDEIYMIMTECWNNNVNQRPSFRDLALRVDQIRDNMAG
Procedure: (§4) Assay 1: Biochemical JAK and Tyk2 Kinase Assays A panel of four LanthaScreen JAK biochemical assays (JAK1, 2, 3 and Tyk2) were carried in a common kinase reaction buffer (50 mM HEPES, pH 7.5, 0.01% Brij-35, 10 mM MgCl2, and 1 mM EGTA). Recombinant GST-tagged JAK enzymes and a GFP-tagged STAT1 peptide substrate were obtained from Life Technologies. Serially or discretely diluted compounds were pre-incubated with each of the four JAK enzymes and the substrate in white 384-well microplates (Corning) at ambient temperature for 1 h. ATP was subsequently added to initiate the kinase reactions in 10 μL total volume, with 1% DMSO. […] Kinase reactions were allowed to proceed for 1 hour at ambient temperature before a 10 μL preparation of EDTA (10 mM final concentration) and Tb-anti-pSTAT1 ([…]) antibody (Life Technologies, 2 nM final concentration) in TR-FRET dilution buffer (Life Technologies) was added. The plates were allowed to incubate at ambient temperature for 1 h before being read on the EnVision reader (Perkin Elmer). Emission ratio signals (520 nm/495 nm) were recorded and utilized to calculate the percent inhibition values based on DMSO and background controls. For dose-response analysis, percent inhibition data were plotted vs. compound concentrations, and IC50 values were determined from a 4-parameter robust fit model with the Prism software (GraphPad Software). Results were expressed as pIC50 (negative logarithm of IC50) and subsequently converted to pKi (negative logarithm of dissociation constant, Ki) using the Cheng-Prusoff equation.

Tyk2 = target: T2, Tyk2 (Homo sapiens, UniProt P29597); assay: Biochemical LanthaScreen Tyk2 kinase assay; conditions: Km ATP 10 μM; pKi from pIC50 by Cheng-Prusoff; read-out: Tyk 2 (pKi) (converted)
T2 construct: GST; purchased Life Technologies
T2 sequence (P29597 whole entry): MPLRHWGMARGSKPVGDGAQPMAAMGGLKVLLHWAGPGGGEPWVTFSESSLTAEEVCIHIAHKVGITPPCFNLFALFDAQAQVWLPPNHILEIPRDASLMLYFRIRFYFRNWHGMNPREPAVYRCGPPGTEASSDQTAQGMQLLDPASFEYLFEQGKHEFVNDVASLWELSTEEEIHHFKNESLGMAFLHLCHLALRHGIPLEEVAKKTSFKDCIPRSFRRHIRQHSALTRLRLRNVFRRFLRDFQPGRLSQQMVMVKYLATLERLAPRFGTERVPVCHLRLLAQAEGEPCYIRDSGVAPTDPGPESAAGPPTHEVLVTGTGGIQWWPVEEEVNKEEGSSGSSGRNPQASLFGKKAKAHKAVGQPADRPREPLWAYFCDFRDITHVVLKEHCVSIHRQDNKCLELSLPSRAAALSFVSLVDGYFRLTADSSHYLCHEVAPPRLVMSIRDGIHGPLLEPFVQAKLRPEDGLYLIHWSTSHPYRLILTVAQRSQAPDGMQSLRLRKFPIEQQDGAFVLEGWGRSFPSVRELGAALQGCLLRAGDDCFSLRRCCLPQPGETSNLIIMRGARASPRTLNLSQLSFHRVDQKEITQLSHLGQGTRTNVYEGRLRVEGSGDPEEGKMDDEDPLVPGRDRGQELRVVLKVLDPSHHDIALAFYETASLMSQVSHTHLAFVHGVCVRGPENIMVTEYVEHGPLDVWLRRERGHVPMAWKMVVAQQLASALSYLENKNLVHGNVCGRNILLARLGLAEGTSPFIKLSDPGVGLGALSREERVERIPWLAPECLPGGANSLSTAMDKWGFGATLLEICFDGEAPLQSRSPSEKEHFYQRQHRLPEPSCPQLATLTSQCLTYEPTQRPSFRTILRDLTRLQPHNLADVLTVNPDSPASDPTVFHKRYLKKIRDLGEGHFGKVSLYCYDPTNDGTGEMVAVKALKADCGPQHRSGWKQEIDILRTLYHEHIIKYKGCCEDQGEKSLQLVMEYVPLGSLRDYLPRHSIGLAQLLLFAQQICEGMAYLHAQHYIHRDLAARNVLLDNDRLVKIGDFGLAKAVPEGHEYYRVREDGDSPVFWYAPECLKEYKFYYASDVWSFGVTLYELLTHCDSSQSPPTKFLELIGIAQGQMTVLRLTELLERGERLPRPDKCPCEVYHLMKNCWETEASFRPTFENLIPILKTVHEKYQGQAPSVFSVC
Procedure: as §4

[2] = In vitro skin S9 metabolic stability assay (mouse); type: in vitro ADME; conditions: mouse, s9, pH 7.4
Procedure: as §1, §2, §3

physchem [3] = type: physicochemical; conditions: pH 7.4, aqueous buffer, thermodynamic from solid
Procedure: Assay 4: Aqueous Solubility Assay The purpose of this assay was to quantify the solubility of test compounds in pH 4 and pH 7.4 PBS buffers. The assay required 40 μL of 10 mM DMSO test compound solution per desired buffer in addition to 20 μL required to make a test standard. For example, to test a compound in both buffers, 100 μL (2*40 μL+20 μL) of 10 mM DMSO compound stock solution was required. The standard was created by diluting 20 μL of 10 mM DMSO compound stock solution into 180 μL of methanol and was shaken for five minutes to ensure solution uniformity. […] This 1,000 μM solution was run on an Agilent 1260 LC-MS system by injecting 2 μL in order to obtain the peak area. For the test solutions, 40 μL of 10 mM DMSO compound stock solution, per PBS buffer condition, were dried down into a powder overnight. Once in powder form, 400 μL of the desired PBS buffer was added to the powder and allowed to shake vigorously for four hours. The maximum theoretical concentration for this sample solution was 1,000 μM. After four hours of shaking, the samples were centrifuged for 10 minutes at 3,000 RPM before injecting 2 μL on the same Agilent 1260 LC-MS system to obtain the peak area. […]

physchem [4] = type: physicochemical; conditions: thermodynamic from solid
Procedure: Assay 5: Solubility Assay in Organic Excipients The purpose of this assay was to quantify the solubility of test compounds in different organic excipients such as diisopropyl adipate, medium chain triglycerides (MCT), propylene glycol, and polyethylene glycol. The assay required 80 μL of 100 mM DMSO test compound solution per desired excipient in addition to 40 μL required to make a test standard. For example, to test a compound in all five […]) of 100 mM DMSO compound stock solution was required. The standard was created by diluting 40 μL of 100 mM DMSO compound stock solution into 160 μL of methanol and was shaken for five minutes to ensure solution uniformity. […] This 20,000 μM solution was run on an Agilent 1260 LC-MS system by injecting 0.2 μL in order to obtain the peak area. For the test solutions, 80 μL of 100 mM DMSO compound stock solution, per excipient, were dried down into a powder overnight. Once in powder form, 400 μL of the desired excipient was added to the powder and allowed to shake vigorously for four hours. The maximum theoretical concentration for this sample solution was 20,000 μM. After four hours of shaking, the samples were centrifuged for 10 minutes at 3,000 RPM before injecting 0.2 μL on the same Agilent 1260 LC-MS system to obtain the peak area. […] In Table 3 below, A represents a value above 10, B represents a value between 5 and 10, C represents a value below 5.

JAK1 = target: T3, JAK1 (Homo sapiens, UniProt P23458); assay: Biochemical LanthaScreen JAK1 kinase assay; conditions: Km ATP 25 μM; pKi from pIC50 by Cheng-Prusoff; read-out: JAK 1 (pKi) (converted)
T3 construct: GST; purchased Life Technologies
T3 sequence (P23458 whole entry): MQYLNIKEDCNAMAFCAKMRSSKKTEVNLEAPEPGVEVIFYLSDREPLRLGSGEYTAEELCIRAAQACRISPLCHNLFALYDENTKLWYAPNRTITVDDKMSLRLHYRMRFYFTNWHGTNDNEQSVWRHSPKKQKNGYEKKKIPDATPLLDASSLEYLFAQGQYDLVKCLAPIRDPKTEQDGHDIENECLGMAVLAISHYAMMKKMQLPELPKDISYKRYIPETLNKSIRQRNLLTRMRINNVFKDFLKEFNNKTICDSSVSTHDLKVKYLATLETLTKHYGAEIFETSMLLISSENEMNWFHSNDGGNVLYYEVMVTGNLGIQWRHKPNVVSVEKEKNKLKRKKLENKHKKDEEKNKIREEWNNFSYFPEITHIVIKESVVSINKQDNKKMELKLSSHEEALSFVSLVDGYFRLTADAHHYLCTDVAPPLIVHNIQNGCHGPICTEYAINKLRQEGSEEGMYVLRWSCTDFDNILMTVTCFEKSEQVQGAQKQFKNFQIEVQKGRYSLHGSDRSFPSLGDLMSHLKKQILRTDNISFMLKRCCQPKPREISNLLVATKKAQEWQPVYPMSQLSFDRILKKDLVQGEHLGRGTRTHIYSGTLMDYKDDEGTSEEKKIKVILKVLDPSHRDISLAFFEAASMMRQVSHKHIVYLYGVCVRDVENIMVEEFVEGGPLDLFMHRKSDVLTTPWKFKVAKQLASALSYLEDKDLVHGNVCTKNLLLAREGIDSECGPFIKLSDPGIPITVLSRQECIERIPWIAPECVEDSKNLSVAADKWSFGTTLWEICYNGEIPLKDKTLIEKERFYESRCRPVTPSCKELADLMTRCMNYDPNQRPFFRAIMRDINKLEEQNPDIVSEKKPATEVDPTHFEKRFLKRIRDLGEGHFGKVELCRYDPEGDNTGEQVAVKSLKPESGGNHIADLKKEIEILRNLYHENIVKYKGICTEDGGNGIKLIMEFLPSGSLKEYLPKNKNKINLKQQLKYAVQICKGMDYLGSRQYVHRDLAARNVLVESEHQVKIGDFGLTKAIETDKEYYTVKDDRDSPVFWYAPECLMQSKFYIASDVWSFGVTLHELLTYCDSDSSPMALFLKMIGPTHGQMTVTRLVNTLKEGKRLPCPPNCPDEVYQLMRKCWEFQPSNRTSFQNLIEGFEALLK
Procedure: as §4

[5] = oil or lipid, Solubility in MCT
[6] = organic solvent or mixture, Solubility in Diisopropyl adipate
[7] = organic solvent or mixture, Solubility in PEG400
[8] = organic solvent or mixture, Solubility in Propylene glycol
[9] = organic solvent or mixture, Solubility in Transcutol

SMILES	half-life at 0.2 μM [1]	half-life at 2 μM [1]	Ki (JAK2)	Ki (Tyk2)	half-life at 0.2 μM [2]	half-life at 2 μM [2]	solubility at 4 h (physchem [3])	solubility at 4 h (physchem [4]; [5])	solubility at 4 h (physchem [4]; [6])	solubility at 4 h (physchem [4]; [7])	solubility at 4 h (physchem [4]; [8])	solubility at 4 h (physchem [4]; [9])	Ki (JAK1)
CCS(=O)(=O)N1[C@@H]2CCC[C@H]1C[C@H](N(C)c1nc(COC(C)=O)c(F)c(Nc3cc(C)[nH]n3)n1)C2 [Compound 1, (2-(((1R,3s,5S)-9-(ethylsulfonyl)-9-azabicyclo[3.3.1]nonan-3-yl)(methyl)amino)-5-fluoro-6-((5-methyl-1H-pyrazol-3-yl)amino)pyrimidin-4-yl)methyl acetate]	> 30 min	> 30 min	≤ 0.1 nM	≤ 0.1 nM	< 15 min	15 to 30 min	10 to 50 µM	< 5000 µg/mL	> 10000 µg/mL	5000 to 10000 µg/mL	> 10000 µg/mL	> 10000 µg/mL	0.1 to 1 nM
CCS(=O)(=O)N1[C@@H]2CCC[C@H]1C[C@H](N(C)c1nc(COC(=O)OC3CCCCC3)c(F)c(Nc3cc(C)[nH]n3)n1)C2 [Compound 6, cyclohexyl ((2-(((1R,3s,5S)-9-(ethylsulfonyl)-9-azabicyclo[3.3.1]nonan-3-yl)(methyl)amino)-5-fluoro-6-((5-methyl-1H-pyrazol-3-yl)amino)pyrimidin-4-yl)methyl) carbonate]	> 30 min	> 30 min	0.1 to 1 nM	1 to 10 nM	< 15 min	< 15 min	10 to 50 µM (≈ 5.94 to 29.7 µg/mL)	< 5000 µg/mL	> 10000 µg/mL	5000 to 10000 µg/mL (≈ 8.42 to 16.8 mM)	5000 to 10000 µg/mL (≈ 8.42 to 16.8 mM)	> 10000 µg/mL	1 to 10 nM
